Each structure is given as a SMILES string. Where “and” joins values, the source holds several entries; their conditions need not be identical. Equal entries are not always repeated. Inconclusive results and toxic doses are left out.

This test concerns BDF1 mice, B16 melanoma ip, median survival T/C. Put plainly: NCI In Vivo Anticancer Drug Screen. Data for tumor model B16 Melanoma (intraperitoneal) in B6D2F1 (BDF1) mice. As to conditions: endpoint: median survival time, higher = longer survival. Summed up:
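In this screen, activity was judged from survival or tumor size in treated versus vehicle-treated tumor-bearing mice, reported as T/C.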

Setting [1] is: dose: 100.0 mg/kg/injection, schedule: Q01DX009 (ip), vehicle: Klucel (hydroxypropylcellulose) (HPC).
Where [2] appears, read: dose: 100.0 mg/kg/injection, schedule: Q04DX003 (ip), vehicle: Klucel (hydroxypropylcellulose) (HPC).
Where [3] appears, read: dose: 200.0 mg/kg/injection, schedule: Q01DX009 (ip), vehicle: Klucel (hydroxypropylcellulose) (HPC).
The mark [4] stands for this setting: dose: 200.0 mg/kg/injection, schedule: Q04DX003 (ip), vehicle: Klucel (hydroxypropylcellulose) (HPC).
Where [5] appears, read: dose: 400.0 mg/kg/injection, schedule: Q01DX009 (ip), vehicle: Klucel (hydroxypropylcellulose) (HPC).
Where [6] appears, read: dose: 400.0 mg/kg/injection, schedule: Q04DX003 (ip), vehicle: Klucel (hydroxypropylcellulose) (HPC).
Where [7] appears, read: dose: 25.0 mg/kg/injection, schedule: Q01DX009 (ip), vehicle: saline with Tween-80.
The mark [8] stands for this setting: dose: 100.0 mg/kg/injection, schedule: Q01DX009 (ip), vehicle: saline with Tween-80.
The mark [9] stands for this setting: dose: 200.0 mg/kg/injection, schedule: Q01DX009 (ip), vehicle: saline with Tween-80.
Where [10] appears, read: dose: 400.0 mg/kg/injection, schedule: Q01DX009 (ip), vehicle: saline with Tween-80.
The mark [11] stands for this setting: dose: 12.5 mg/kg/injection, schedule: Q01DX009 (ip), vehicle: Klucel (hydroxypropylcellulose) (HPC).

Regarding `O=C(CCCN1CCC2(CC1)C(=O)NCN2c1ccccc1)c1ccc(F)cc1`, the T/C is 92 % of control (dose: 0.39 mg/kg/injection, schedule: Q01DX009 (ip), vehicle: saline); 89 % of control (dose: 0.78 mg/kg/injection, schedule: Q01DX009 (ip), vehicle: saline); 94 % of control (dose: 1.56 mg/kg/injection, schedule: Q01DX009 (ip), vehicle: saline).

Turning to `Cc1cnc([Se])[nH]c1=O`, the T/C is, setting by setting: (dose: 6.25 mg/kg/injection, schedule: Q01DX009 (ip), vehicle: water) 100 % of control; (dose: 12.5 mg/kg/injection, schedule: Q01DX009 (ip), vehicle: water) 96 % of control; (dose: 25.0 mg/kg/injection, schedule: Q01DX009 (ip), vehicle: water) 96 % of control; (dose: 50.0 mg/kg/injection, schedule: Q01DX009 (ip), vehicle: water) 101 % of control.

For `COC(=O)c1c(C)cc(OC(=O)c2c(C)c(Cl)c(O)c(Cl)c2O)cc1O`, the T/C by setting is: (dose: 5.0 mg/kg/injection, schedule: Q01DX009 (ip), vehicle: Klucel (hydroxypropylcellulose) (HPC)) 97 % of control; (dose: 10.0 mg/kg/injection, schedule: Q01DX009 (ip), vehicle: Klucel (hydroxypropylcellulose) (HPC)) 94 % of control; (dose: 20.0 mg/kg/injection, schedule: Q01DX009 (ip), vehicle: Klucel (hydroxypropylcellulose) (HPC)) 100 % of control.

For the compound `CCCC(CCC)(C(=O)OCC)C(=O)OCC`, the T/C reads like this: under setting [1], 92 % of control; under setting [2], 105 % of control; under setting [3], 96 % of control; under setting [4], 97 % of control; under setting [5], 92 % of control; under setting [6], 91 % of control.

For the compound `CS(=O)(=O)OCCN(CCOS(C)(=O)=O)c1ccc(N=O)cc1`, the T/C was 150 % of control (dose: 0.1 mg/kg/injection, schedule: Q01DX009 (ip), vehicle: saline); 184 % of control and 204 % of control (dose: 0.2 mg/kg/injection, schedule: Q01DX009 (ip), vehicle: saline); 175 % of control (dose: 0.3 mg/kg/injection, schedule: Q01DX009 (ip), vehicle: saline).

For `CC1C=NNC1=O` (configuration not stated), the T/C was 90 % of control under setting [7]; 90 % of control (dose: 50.0 mg/kg/injection, schedule: Q01DX009 (ip), vehicle: saline with Tween-80); 95 % of control under setting [8]; 105 % of control (dose: 100.0 mg/kg/injection, schedule: Q04DX003 (ip), vehicle: other); 105 % of control (dose: 125.0 mg/kg/injection, schedule: Q01DX009 (ip), vehicle: other); 100 % of control (dose: 125.0 mg/kg/injection, schedule: Q04DX003 (ip), vehicle: other). Also, the T/C under setting [9] was 90 % of control; the T/C (dose: 200.0 mg/kg/injection, schedule: Q04DX003 (ip), vehicle: other) was 95 % of control; the T/C (dose: 250.0 mg/kg/injection, schedule: Q01DX009 (ip), vehicle: other) was 100 % of control; the T/C (dose: 250.0 mg/kg/injection, schedule: Q04DX003 (ip), vehicle: other) is 100 % of control; the T/C (dose: 266.0 mg/kg/injection, schedule: Q04DX003 (ip), vehicle: saline with Tween-80) is 197 % of control; the T/C under setting [10] is 116 % of control. The T/C (dose: 400.0 mg/kg/injection, schedule: Q04DX003 (ip), vehicle: other) was 92 % of control; the T/C (dose: 400.0 mg/kg/injection, schedule: Q04DX003 (ip), vehicle: saline with Tween-80) was 200 % of control; the T/C (dose: 500.0 mg/kg/injection, schedule: Q01DX009 (ip), vehicle: other) is 111 % of control; the T/C (dose: 500.0 mg/kg/injection, schedule: Q04DX003 (ip), vehicle: other) was 102 % of control; the T/C (dose: 600.0 mg/kg/injection, schedule: Q04DX003 (ip), vehicle: saline with Tween-80) was 183 % of control.

`Cc1ccc(S(=O)(=O)N/N=C/c2ccccc2Cl)cc1`: the T/C by setting is: (dose: 1.56 mg/kg/injection, schedule: Q01DX009 (ip), vehicle: other) 98 % of control; (dose: 3.13 mg/kg/injection, schedule: Q01DX009 (ip), vehicle: other) 99 % of control; (dose: 6.25 mg/kg/injection, schedule: Q01DX009 (ip), vehicle: other) 96 % of control; under setting [11], 91 % of control; (dose: 12.5 mg/kg/injection, schedule: Q01DX009 (ip), vehicle: other) 90 % of control; (dose: 50.0 mg/kg/injection, schedule: Q01DX009 (ip), vehicle: Klucel (hydroxypropylcellulose) (HPC)) 89 % of control. Also, under setting [1], the T/C is 86 % of control.

Take `CC(N)CN(C)C` (configuration not stated): the T/C by setting is: (dose: 50.0 mg/kg/injection, schedule: Q01DX009 (ip), vehicle: saline) 101 % of control; (dose: 100.0 mg/kg/injection, schedule: Q01DX009 (ip), vehicle: saline) 102 % of control; (dose: 200.0 mg/kg/injection, schedule: Q01DX009 (ip), vehicle: saline) 93 % of control.

On to `Cc1ncc([N+](=O)[O-])n1CCO`, for which the T/C was 104 % of control (dose: 18.7 mg/kg/injection, schedule: Q01DX009 (ip), vehicle: Klucel (hydroxypropylcellulose) (HPC)); 118 % of control (dose: 37.5 mg/kg/injection, schedule: Q01DX009 (ip), vehicle: Klucel (hydroxypropylcellulose) (HPC)); 115 % of control (dose: 75.0 mg/kg/injection, schedule: Q01DX009 (ip), vehicle: Klucel (hydroxypropylcellulose) (HPC)); 102 % of control (dose: 150.0 mg/kg/injection, schedule: Q01DX009 (ip), vehicle: Klucel (hydroxypropylcellulose) (HPC)); 113 % of control (dose: 300.0 mg/kg/injection, schedule: Q01DX009 (ip), vehicle: Klucel (hydroxypropylcellulose) (HPC)); 106 % of control (dose: 600.0 mg/kg/injection, schedule: Q01DX009 (ip), vehicle: Klucel (hydroxypropylcellulose) (HPC)).

In the case of `O=S1(=O)CC(Cl)C(Cl)C1` (configuration not stated), the T/C (dose: 3.12 mg/kg/injection, schedule: Q01DX009 (ip), vehicle: Klucel (hydroxypropylcellulose) (HPC)) is 91 % of control and the T/C under setting [11] was 96 % of control.

In the case of `O=C1CC2C=CCC12` (configuration not stated), the T/C runs as follows: under setting [8], 107 % of control; under setting [9], 100 % of control; under setting [10], 91 % of control.

With `CCCCCCCC(=O)Nc1ccc(C)cc1`, the T/C (dose: 50.0 mg/kg/injection, schedule: Q04DX003 (ip), vehicle: Klucel (hydroxypropylcellulose) (HPC)) was 89 % of control and the T/C under setting [2] is 91 % of control.

Turning to `O=C(O)c1c(Cl)cccc1Cl`, the T/C is 105 % of control (dose: 12.5 mg/kg/injection, schedule: Q01DX009 (ip), vehicle: saline with Tween-80); 95 % of control under setting [7]; 105 % of control (dose: 25.0 mg/kg/injection, schedule: Q04DX003 (ip), vehicle: saline with Tween-80); 97 % of control (dose: 50.0 mg/kg/injection, schedule: Q04DX003 (ip), vehicle: saline with Tween-80).

Take `Nc1ccc(-c2ccc(N)c(Cl)c2)cc1Cl`: the T/C reads like this: under setting [2], 111 % of control; under setting [4], 108 % of control; under setting [6], 100 % of control.

Take `CC(=O)CC(=O)N1CCC(C)CC1`: the T/C under setting [1] is 110 % of control, the T/C under setting [3] is 112 % of control and the T/C under setting [5] was 115 % of control.

For `Nc1ncnc2nc[nH]c12`, the T/C runs as follows: (dose: 32.0 mg/kg/injection, schedule: Q01DX009 (ip), vehicle: Klucel (hydroxypropylcellulose) (HPC)) 97 % of control; (dose: 64.0 mg/kg/injection, schedule: Q01DX009 (ip), vehicle: Klucel (hydroxypropylcellulose) (HPC)) 98 % of control; (dose: 64.0 mg/kg/injection, schedule: Q01DX009 (ip), vehicle: saline with Tween-80) 98 % of control; (dose: 128.0 mg/kg/injection, schedule: Q01DX009 (ip), vehicle: Klucel (hydroxypropylcellulose) (HPC)) 89 % of control.

For `CC(Cc1ccccc1)NN` (configuration not stated), the T/C (dose: 0.97 mg/kg/injection, schedule: Q01DX009 (ip), vehicle: saline) is 110 % of control; the T/C (dose: 1.95 mg/kg/injection, schedule: Q01DX009 (ip), vehicle: saline) is 112 % of control; the T/C (dose: 3.9 mg/kg/injection, schedule: Q01DX009 (ip), vehicle: saline) is 102 % of control; the T/C (dose: 7.81 mg/kg/injection, schedule: Q01DX009 (ip), vehicle: saline) is 112 % of control.

For the origin of these results see PubChem BioAssay AID192 (DTP/NCI, 2004).
